Source: patent US10525063B2, “Methods of reducing mammographic breast density and/or breast cancer risk” (HAVAH THERAPEUTICS PTY LTD., priority 2014, dated 2020)
Where two headings read alike, the source gives them in different places.

How the values were obtained:
[1] = Serum anastrozole by liquid chromatography-tandem mass spectrometry; format: in vivo, human; conditions: for concentration at 3 month / concentration at 1 month: human, serum
Protocol: FAI is calculated from a formula where the serum measurement of total testosterone and sex hormone binding globulin are calculated by radio immunoassay. Aromatase inhibitor serum level is determined by liquid chromatography-tandem mass spectrometry.
All thirty having serum drawn at baseline and at 1 year for serum testosterone and sex hormone binding globulin so that free-androgen index could be calculated (FAI=the ratio of the total testosterone level divided by the sex hormone binding globulin level, and then multiplied by a 100 to give a percentage).

[2] = system: mammographic breast density; conditions: background statement; cited from earlier work
[3] = cited from earlier work

## CC(C)(C#N)c1cc(Cn2cncn2)cc(C(C)(C)C#N)c1 [anastrozole, 2,2′-[5-(1H-1,2,4-triazol-1-ylmethyl)-1,3-phenylene]bis(2-methylpropanenitrile)]
[1]; Example 2, 30 patients, s.c. testosterone and anastrozole at 4 months intervals
  Serum anastrazole (ng/ml) End 1st year 3 month trough, median (range): 32 (22-39) ng/ml
[1]; female, sc, Example 2, 30 patients, s.c. testosterone and anastrozole at 4 months intervals, read-out: Serum anastrazole (ng/ml) 1st 3 month trough, median (range)
  concentration at 3 month: 27 ng/mL
[1]; sc, Serum anastrozole, Example 1, Pellet 1 (testosterone 59 mg, anastrozole 2.75 mg, s.c.)
  concentration at 1 month: 38 ng/mL
[1]; sc, Serum anastrozole, Example 1, Pellet 1 (testosterone 59 mg, anastrozole 2.75 mg, s.c.), 3 month
  concentration at 3 month: 28 ng/mL
[1]; subcutaneous, Serum anastrozole, Example 1, Pellet 2 (testosterone 71 mg, anastrozole 2.75 mg)
  concentration at 1 month: 35 ng/mL
[1]; subcutaneous, Serum anastrozole, Example 1, Pellet 2 (testosterone 71 mg, anastrozole 2.75 mg), 3 month
  concentration at 3 month: 25 ng/mL
[1]; subcutaneous, Serum anastrozole, Example 1, Pellet 3 (testosterone 71 mg, anastrozole 2.75 mg)
  concentration at 1 month: 38 ng/mL
[1]; subcutaneous, Serum anastrozole, Example 1, Pellet 3 (testosterone 71 mg, anastrozole 2.75 mg), 3 month
  concentration at 3 month: 28 ng/mL

## CC/C(=C(\c1ccccc1)c1ccc(OCCN(C)C)cc1)c1ccccc1 [tamoxifen]
[2]
  Effect on mammographic breast density: has been shown to reduce mammographic breast density

## CCCCCCCCCCC(=O)O[C@H]1CC[C@H]2[C@@H]3CCC4=CC(=O)CC[C@]4(C)[C@H]3CC[C@]12C [testosterone undecanoate]
[3]; by-passes the liver via the lymphatic system
  Oral bioavailability: orally bioavailable

## C[C@]12CC[C@H]3[C@@H](CCC4=CC(=O)CC[C@@]43C)[C@@H]1CC[C@@H]2O [testosterone]
[3]; oral delivery
  Fraction broken down in the liver as it is absorbed from the gut: 80-90%
[3]; oral
  Fraction broken down in the intestines by aromatase and other metabolic pathways: approximately 85%
